Measured values from BindingDB's records for doi:10.1002/cbic.201402673 (University of Groningen, 2015).

biological target: T1, Thiamine transporter ThiT (Lactococcus lactis subsp. cremoris (strain MG1363), UniProt A2RI47); experiment: Intrinsic-Fluorescence Titration
T1 sequence (A2RI47 whole entry): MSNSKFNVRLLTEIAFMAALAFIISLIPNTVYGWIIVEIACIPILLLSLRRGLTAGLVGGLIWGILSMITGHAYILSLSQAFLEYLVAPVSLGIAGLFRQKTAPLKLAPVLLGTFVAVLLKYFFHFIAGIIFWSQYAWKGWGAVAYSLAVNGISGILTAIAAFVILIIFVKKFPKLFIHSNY
Procedure: Purified ThiT was diluted in buffer E to a concentration of ~50 nM in a final volume of 800 µL. The substrates were added in 1 µL steps. Using an excitation wavelength of 280 nm, emission was measured at 350 nm and 25 °C. After each addition of substrate, 10 s were allowed for equilibration and mixing, and the signals were averaged over 15 s.

SMILES | Kd
Cc1ncc(Cc2cccc(CCO)c2)c(N)n1 [2-(3-((4-Amino-2-methylpyrimidin-5-yl)methyl)phenyl)ethanol (8)] | 266 nM
Cc1ncc(Cc2csc(CCO)c2C)c(N)n1 [3-Deazathiamine] | 4.23 nM
Cc1ncc(Cc2csc(C=O)c2C)c(N)n1 [4-((4-Amino-2-methylpyrimidin-5-yl)methyl)-3-methylthiophene-2-carbaldehyde (9)] | 7.44 nM

The next lines start with the values.

Kd | SMILES
528 nM | Cc1ncc(Cc2cccc(CO)c2)c(N)n1 [(3-((4-Amino-2-methylpyrimidin-5-yl)methyl)phenyl)methanol (6)]
5.21 nM | Cc1ncc(Cc2csc(CO)c2C)c(N)n1 [(4-((4-Amino-2-methylpyrimidin-5-yl)methyl)-3-methylthiophen-2-yl)methanol (7)]
